Test results reported in US11339151B2, “Aliphatic acid amide derivative” (Sumitomo Dainippon Pharma Co., Ltd., priority 2019, dated 2022).

Legend:
[1] = Test 3-1: metabolic stability test in human hepatic microsome; assay type: in vitro ADME; conditions: microsome 0.1 mg/mL, test compound 0.1 μmol/L, 37° C., 30 minutes
Description: Test 3-1: Metabolic Stability Test in Human Hepatic Microsome
The metabolic stability of the present compound in human hepatic microsome was evaluated as mentioned below. Human hepatic microsome was obtained from Xenontech. Human hepatic microsome, NADPH, and each test compound were mixed in 25 mmol/L phosphate buffer solution (pH 7.4) to reach the following concentrations as shown below, and the mixture was incubated at 37° C. for 30 minutes. • Human hepatic microsome: 0.1 mg/mL • NADPH: 3.2 mmol/L • Test compound: 0.1 μmol/L
The residual ratio of test compound in each sample after 30 minutes was measured by LC-MS, and the metabolic stability in human hepatic microsome was calculated from the following formula. Metabolic stability in human hepatic microsome (mL/min/mg protein)=−LN (residual ratio)/30/0.1

human 5-HT7 receptor [2] = target: T1, human 5-HT7 receptor (Homo sapiens (Human), UniProt P34969); assay: Test 2: antagonist activity for human 5-HT7 receptor (aequorin luminescence, CHO-K1 cells); assay type: cell-based; conditions: Gα16
Description: Test 2: Evaluation of Antagonist Activity for Human 5-HT2A Receptor and Human 5-HT7 Receptor
Aequorin, Gα 16 protein, and each receptor were transiently expressed in CHO-K1 cells (Chinese hamster ovary). The cells were cultivated in a CO2 incubator at 37° C. overnight, seeded into a 384-well plate, and stood at room temperature for 2 hours. Each compound dissolved in DMSO was added thereto, and changes in luminescence were measured by FDSS/μCELL drug discovery screening support system (Hamamatsu Photonics K.K.). As for antagonist activity, inhibitory activity of each compound was calculated by setting the luminescence level of wells to which 10 μmol/L endogenous ligand was added as 100%.

human D2 receptor = human D2 receptor (Homo sapiens (Human), UniProt P14416); assay: Test 1: binding activity for human D2 receptor ([3H]Spiperone, CHO cell membrane fraction); conditions: [3H]Spiperone, room temperature 60 minutes
Description: (§1) Ki value was evaluated from dissociation constant which was calculated from saturated binding tests, and a substrate concentration, and it was used as an index for binding affinity.

hERG channel = hERG channel (Homo sapiens (Human), UniProt Q12809); assay: Test 5: inhibitory activity for hERG channel (whole cell patch clamp, hERG-CHO cells); assay type: cell-based; conditions: hERG-CHO cells, auto patch clamp
Description: Test 5: Evaluation of Inhibitory Activity for hERG Channel
Inhibitory activity of the present compound for hERG channel was measured by whole cell patch clamp method with an auto patch clamp system using CHO cells in which hERG channel involved in human rapidly activating delayed rectifier potassium current (IKr) was forcibly expressed.
hERG-CHO cells purchased from ChanTest Cop. were cultured in a CO2 incubator at 37° C., and dissociated from a flask with trypsin shortly before the measurement of hERG current to prepare a cell suspension.
The cell suspension, the extracellular fluid, the intracellular fluid, and the measurement plate were set in an auto patch clamp system, and hERG current was measured by whole cell patch clamp method. […] Each pulse interval was 15 seconds. The data analysis was carried out with Qube Assay Software (Sophion Sophion). The test was carried out by applying incrementally 4 concentrations of each test compound, and the average of the maximum peak tail currents which were obtained from the last 3 stimulations in each concentration was determined as the evaluated data.

human 5-HT7 receptor [3] = target: T1, human 5-HT7 receptor; assay: Test 1: binding activity for human 5-HT7 receptor ([3H]SB-269970, CHO cell membrane fraction); conditions: [3H]SB-269970, room temperature 60 minutes
Description: as §1

Chain of human D2 receptor (P14416 whole entry): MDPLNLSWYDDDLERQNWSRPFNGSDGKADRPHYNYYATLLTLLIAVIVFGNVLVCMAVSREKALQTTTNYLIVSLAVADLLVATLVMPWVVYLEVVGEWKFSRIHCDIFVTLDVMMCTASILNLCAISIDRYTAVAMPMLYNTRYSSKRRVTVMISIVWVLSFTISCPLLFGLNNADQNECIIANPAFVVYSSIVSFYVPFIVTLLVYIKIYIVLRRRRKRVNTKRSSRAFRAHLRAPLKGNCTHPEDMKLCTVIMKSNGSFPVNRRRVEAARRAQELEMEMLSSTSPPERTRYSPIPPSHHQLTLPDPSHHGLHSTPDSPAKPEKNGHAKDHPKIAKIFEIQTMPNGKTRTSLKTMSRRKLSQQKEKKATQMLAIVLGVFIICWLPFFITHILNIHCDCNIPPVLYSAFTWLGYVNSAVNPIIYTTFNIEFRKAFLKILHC
Chain of hERG channel (Q12809 whole entry): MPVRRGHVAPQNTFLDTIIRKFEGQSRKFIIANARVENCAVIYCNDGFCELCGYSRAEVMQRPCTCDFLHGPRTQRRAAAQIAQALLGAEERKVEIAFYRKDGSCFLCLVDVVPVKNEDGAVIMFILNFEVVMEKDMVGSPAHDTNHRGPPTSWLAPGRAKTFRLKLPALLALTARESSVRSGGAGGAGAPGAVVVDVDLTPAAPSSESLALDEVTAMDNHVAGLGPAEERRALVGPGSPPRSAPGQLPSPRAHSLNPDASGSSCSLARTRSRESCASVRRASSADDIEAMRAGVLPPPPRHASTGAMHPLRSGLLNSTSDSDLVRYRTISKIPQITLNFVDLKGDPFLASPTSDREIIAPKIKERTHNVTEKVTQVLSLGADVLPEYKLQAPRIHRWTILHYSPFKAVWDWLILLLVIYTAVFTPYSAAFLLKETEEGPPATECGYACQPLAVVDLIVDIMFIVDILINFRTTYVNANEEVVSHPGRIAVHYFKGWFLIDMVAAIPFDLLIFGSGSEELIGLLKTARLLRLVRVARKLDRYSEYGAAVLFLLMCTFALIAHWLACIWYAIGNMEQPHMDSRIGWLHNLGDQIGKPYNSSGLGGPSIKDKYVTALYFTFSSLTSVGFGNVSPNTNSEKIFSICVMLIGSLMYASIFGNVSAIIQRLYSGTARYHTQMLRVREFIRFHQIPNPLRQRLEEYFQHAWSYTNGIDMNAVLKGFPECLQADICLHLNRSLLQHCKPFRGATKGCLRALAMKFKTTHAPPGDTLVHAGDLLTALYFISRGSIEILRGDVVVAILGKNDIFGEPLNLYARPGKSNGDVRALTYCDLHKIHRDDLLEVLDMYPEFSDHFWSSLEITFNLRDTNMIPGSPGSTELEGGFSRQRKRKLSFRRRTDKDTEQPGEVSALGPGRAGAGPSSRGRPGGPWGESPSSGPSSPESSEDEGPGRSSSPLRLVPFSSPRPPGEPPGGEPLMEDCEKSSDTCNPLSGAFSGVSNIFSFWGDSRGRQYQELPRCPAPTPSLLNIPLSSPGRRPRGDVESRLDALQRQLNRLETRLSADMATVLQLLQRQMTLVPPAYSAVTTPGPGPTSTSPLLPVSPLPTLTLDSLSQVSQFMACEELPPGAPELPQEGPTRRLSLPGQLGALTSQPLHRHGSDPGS
T1 sequence (P34969 whole entry): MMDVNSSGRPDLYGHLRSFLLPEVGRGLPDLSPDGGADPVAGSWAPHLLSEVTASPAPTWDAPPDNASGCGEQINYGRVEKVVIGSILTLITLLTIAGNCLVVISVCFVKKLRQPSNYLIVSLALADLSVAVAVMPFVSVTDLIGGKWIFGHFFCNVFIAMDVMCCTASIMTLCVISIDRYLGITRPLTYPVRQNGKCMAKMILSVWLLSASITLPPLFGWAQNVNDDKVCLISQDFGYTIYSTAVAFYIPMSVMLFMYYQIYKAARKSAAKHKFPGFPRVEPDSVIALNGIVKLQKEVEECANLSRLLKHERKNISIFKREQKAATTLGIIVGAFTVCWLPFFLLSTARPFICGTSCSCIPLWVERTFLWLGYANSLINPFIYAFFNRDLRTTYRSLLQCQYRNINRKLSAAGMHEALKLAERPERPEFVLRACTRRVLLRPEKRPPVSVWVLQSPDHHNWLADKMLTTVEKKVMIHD

| SMILES | Metabolic stability in human hepatic microsome [1] | IC50 (human 5-HT7 receptor [2]) | Ki (human D2 receptor) | IC50 (hERG channel) | Ki (human 5-HT7 receptor [3]) |
| --- | --- | --- | --- | --- | --- |
| CC(C)N(CCN1CCC(c2noc3cc(F)ccc23)CC1)C(=O)CCO [Example 35] | <0.05 mL/min/mg protein | 81 nM | < 100 nM | 4300 nM | 3.8 nM |
| CCN(CCCN1CCC(c2noc3cc(F)ccc23)CC1)C(=O)[C@H](C)O [Example 38] | <0.05 mL/min/mg protein | 59 nM | 352 nM | > 10000 nM | 9.6 nM |
| CCN(CCCN1CCC(c2noc3cc(F)ccc23)CC1)S(=O)(=O)CCO [Example 53] | <0.05 mL/min/mg protein | 44 nM | < 100 nM | 7200 nM | 1.4 nM |
| CCN(CCN1CCC(c2noc3cc(F)ccc23)CC1)C(=O)C1CCCCC1O (stereo not drawn) [Example 33] | 0.268 mL/min/mg protein | 59 nM | 55 nM | 2200 nM | 1.6 nM |
| CCN(CCN1CCC(c2n[nH]c3cc(F)ccc23)CC1)C(=O)C(C)O (stereo not drawn) [Example 19, N-Ethyl-N-{2-[4-(6-fluoro-1H-indazol-3-yl)piperidin-1-yl]ethyl}-2-hydroxypropanamide] | <0.05 mL/min/mg protein | 61 nM | 105 nM | > 10000 nM | 2.3 nM |
| CCN(CCN1CCC(c2c[nH]c3cc(F)ccc23)CC1)S(=O)(=O)CCO [Example 62] | <0.05 mL/min/mg protein | 28 nM | 104 nM | 5400 nM | 2.8 nM |
| CCN(CCN1CCC(c2noc3cc(F)ccc23)CC1)C(=O)C1(O)CCCNC1 (stereo not drawn) [Example 69] | <0.05 mL/min/mg protein | 85 nM | < 100 nM | > 10000 nM | 1.5 nM |
| CCN(CCN1CCC(c2noc3cc(F)ccc23)CC1)C(=O)C(O)C(F)(F)F (stereo not drawn) [Example 34] | <0.05 mL/min/mg protein | 78 nM | 247 nM | 7300 nM | 4.6 nM |
| CCN(CCN1CCC(c2noc3ccc(F)cc23)CC1)C(=O)[C@H](C)O [Example 45] | <0.05 mL/min/mg protein | 49 nM | > 300 nM | > 10000 nM | 22.6 nM |
| CCN(CCN1CCC(n2ncc3cc(F)ccc32)CC1)S(=O)(=O)C(C)CO (stereo not drawn) [Example 64] | 0.097 mL/min/mg protein | 101 nM | 348 nM | > 10000 nM | 2.4 nM |
| CCN(CCN1CCC(c2noc3cc(F)ccc23)CC1)C(=O)C(O)CCC(=O)OC (stereo not drawn) [Example 5] | 0.186 mL/min/mg protein | 66 nM | 116 nM | 1100 nM | 2.4 nM |
| CCN(CCN1CCC(n2ncc3cc(F)ccc32)CC1)S(=O)(=O)CCO [Example 63] | <0.05 mL/min/mg protein | 46 nM | 532 nM | 14500 nM | 6.9 nM |
| CCN(CCN1CCC(c2noc3cc(F)c(C)cc23)CC1)S(=O)(=O)CCO [Example 58] | <0.05 mL/min/mg protein | 103 nM | > 1000 nM | > 10000 nM | 19.4 nM |
| CCN(CCN1CCC(n2ncc3cc(F)ccc32)CC1)C(=O)CCO [Example 2, N-Ethyl-N-{2-[4-(5-fluoro-1H-indazol-1-yl)piperidin-1-yl]ethyl}-3-hydroxypropanamide] | <0.05 mL/min/mg protein | 94 nM | > 1000 nM | 7400 nM | 9.3 nM |
| CCN(CCN1CCC(c2noc3cc(F)ccc23)CC1)C(=O)CC(C)O (stereo not drawn) [Example 10] | <0.05 mL/min/mg protein | 9 nM | < 100 nM | 3600 nM | 2.7 nM |
| CC(C)N(CCN1CCC(c2noc3cc(F)ccc23)CC1)C(=O)[C@@H](C)O [Example 42] | <0.05 mL/min/mg protein | 9 nM | 74 nM | 6400 nM | 2.5 nM |
| CCN(CCN1CCC(c2noc3cc(F)ccc23)CC1)C(=O)C1(O)CCOCC1 [Example 11] | <0.05 mL/min/mg protein | 67 nM | < 100 nM | 10500 nM | 5.2 nM |
| CCN(CCN1CCC(c2c[nH]c3ccccc23)CC1)C(=O)[C@H](C)O [Example 23, (2S)—N-Ethyl-2-hydroxy-N-{2-[4-(1H-indol-3-yl)piperidin-1-yl]ethyl}propanamide] | <0.05 mL/min/mg protein | 68 nM | > 1000 nM | > 10000 nM | 7.9 nM |
| CCN(CCN1CCC(c2noc3cc(F)ccc23)CC1)C(=O)C1CN(C(C)=O)CCC1O (stereo not drawn) [Example 74] | <0.05 mL/min/mg protein | 77 nM | 138 nM | 6700 nM | 6.8 nM |
| CCN(CCN1CCC(c2noc3ccccc23)CC1)S(=O)(=O)CCO [Example 61] | <0.05 mL/min/mg protein | 15 nM | 514 nM | > 10000 nM | 12.7 nM |
| CC(O)C(=O)N(CCN1CCC(c2noc3cc(F)ccc23)CC1)C(C)C (stereo not drawn) [Example 31] | <0.05 mL/min/mg protein | 64 nM | 89 nM | 3100 nM | 1.2 nM |
| CC[C@@H](O)C(=O)N(CC)CCN1CCC(c2noc3cc(F)ccc23)CC1 [Example 29] | <0.05 mL/min/mg protein | 99 nM | 146 nM | 900 nM | 2.6 nM |
| CCN(CCN1CCC(c2c[nH]c3ccccc23)CC1)C(=O)CCO [Example 47] | <0.05 mL/min/mg protein | 43 nM | 457 nM | 5400 nM | 8.9 nM |
| CCN(CCN1CCC(c2noc3cc(F)ccc23)CC1)C(=O)C(C)(C)O [Example 6] | 0.053 mL/min/mg protein | 66 nM | 278 nM | 1500 nM | 5.7 nM |
